Measurements as given in patent US12201610B2, “Compositions comprising aticaprant” (Janssen Pharmaceuticals, Inc., priority 2022, dated 2025).
Like-named read-outs stand apart in the source and are kept apart here.

Experiment: Phase 1 PK Part 1: relative bioavailability, dose proportionality, food effect of unmilled API tablet
Format: in vivo, human
Details: for Tmax: median
Procedure: This is a Phase 1, open-label, single dose, multicenter, 4-part study in healthy adult participants.
Potential participants will be screened from Day −28 to Day −2 to determine participants' eligibility for study participation. For Part 1, qualified participants will be admitted on Day −1 of each treatment period and will remain in-house for the total duration of the treatment (Day −1 until Day 5, with single-dose treatment on Day 1 and 96 hours of PK), whereas for Part 2, PK sampling will be done up to 120 hours (Day 6). Each dosed participant will have a safety follow-up on Day 10 to Day 14 after last dose of the study intervention.
The Part 1 of the study involves determination of relative bioavailability for tablet (Formulation Concept 1, i.e., unmilled aticaprant formulation, see Table 10) and capsule formulations (see Example 6, study design, for description of capsule formulation) and dose proportionality and food effect for tablet formulation (Formulation Concept 1) in healthy adult participants (FIG. 25). Part 1 will consist of Subpart 1A and Subpart 1B consisting of a total of 4 periods. […] Participants will be assigned to 1 of 6 treatment sequences (Table 51) and will be administered the 3 treatments in a 3-way crossover. The same 24 participants who complete Subpart 1A will be enrolled in Subpart 1B. Subpart 1B consists of a fourth period to evaluate the food effect of a single dose of 10 mg aticaprant administered as 1×10 mg oral tablet (Formulation Concept 1) under fed conditions (Treatment D; Table 50 and Table 52). A preliminary PK analysis will be conducted at the end of the food effect part (Subpart 1B) for all the periods from Part 1 and will include the food effect data.
Secondary Objectives: • To assess the safety and tolerability of oral doses of aticaprant in healthy adult participants. Part 2
For each individual participant, there will be a washout period of at least 7 days for Part 1 and at least 8 days for Part 2 between subsequent intakes of the study intervention. Day 1 of a treatment period (day of study intervention intake) is the first day of the washout period (also in between the study parts, if applicable).
Participants will be fasting in Part 1A and Part 2A. Participants will have been fed in Parts 1B and 2B. For a fasted condition, participants will fast (nothing to cat or drink except noncarbonated water) overnight for at least 10 hours before and until 4 hours after study intervention administration during each fasted treatment period. Approximately, 4 hours post-dose and after the 4-hour PK sampling, a standard lunch will be served at the study-site. Intake of water is allowed until 2 hours before the intake of the study intervention. Thereafter, water intake is only allowed for study intervention intake and for breakfast, if applicable. Drinking of water is allowed ad libitum from approximately 2 hours after dosing. For a fed condition, participants will consume, after an overnight fast (at least 10 hours), a standardized high-fat breakfast within a 20-minute period. […] Study intervention will be administered approximately 30 minutes after the start of the breakfast.
In Parts 1 and 2, plasma concentrations will be determined for aticaprant. Blood samples for determination of plasma concentrations of aticaprant will be collected predose and at the postdose time points starting on Day 1 as indicated in the Tables 57-58.
The following plasma PK parameters of aticaprant will be determined. A noncompartmental model with extravascular input will be used for the pharmacokinetic analysis.
Based on the individual concentration-time data, using the actual sampling times, the following PK parameters will be derived for aticaprant: […]

[1] = Dose proportionality: C (Test, 5 mg tablet normalized to 10 mg) vs B (Reference, 10 mg tablet), fasting
[2] = Food effect: Treatment D (high-fat breakfast, Test)/Treatment B (fasting, Reference), 10 mg Formulation Concept 1
[3] = Relative BA: Treatment B (10 mg tablet, Test)/Treatment A (2 × 5 mg capsule, Reference), fasting
[4] = Treatment A: 2 × 5 mg oral capsule, fasting, mean
[5] = Treatment B: 1 × 10 mg Formulation Concept 1 (unmilled API tablet), fasting, mean
[6] = Treatment C (1 × 5 mg Formulation Concept 1, fasting), 5 mg dose normalized to 10 mg, mean (SD)
[7] = Treatment C: 1 × 5 mg Formulation Concept 1 (unmilled API tablet), fasting, mean
[8] = Treatment D: 1 × 10 mg Formulation Concept 1 (unmilled API tablet), after high-fat breakfast, mean
[9] = human, plasma, oral, 5 mg, Treatment C: 1 × 5 mg Formulation Concept 1 (unmilled API tablet), fasting, mean
[10] = human, plasma, oral, 10 mg, Treatment B: 1 × 10 mg Formulation Concept 1 (unmilled API tablet), fasting, mean
[11] = human, plasma, oral, 10 mg, Treatment D: 1 × 10 mg Formulation Concept 1 (unmilled API tablet), after high-fat breakfast, mean
[12] = human, plasma, po, 10 mg, Treatment A: 2 × 5 mg oral capsule, fasting, mean

Cc1cc(C)cc(C2CCCN2Cc2ccc(Oc3ccc(C(N)=O)cc3F)cc2)c1 (stereo not shown) [aticaprant, 3-fluoro-4-4-2-(3,5-dimethylphenyl)pyrrolidin-1-yl-methylphenoxybenzamide]
Geometric Mean Cmax (Dose proportionality, completers, Treatment B (Reference): 1 × 10 mg Formulation Concept 1, fasting): 32.8 ng/mL | Ratio of Geometric Means, AUClast [1]: 103.20% | Ratio of Geometric Means, AUC∞ [1]: 103.93% | Ratio of Geometric Means, Cmax [1]: 102.12% | Geometric Mean Cmax (Food effect, completers, Treatment B (Reference): 1 × 10 mg Formulation Concept 1, fasting): 32.6 ng/mL | Ratio of Geometric Means, AUClast [2]: 144.01% | Ratio of Geometric Means, AUC∞ [2]: 143.84% | Ratio of Geometric Means, Cmax [2]: 112.49% | Geometric Mean Cmax (Relative BA, completers, Treatment B (Test): 1 × 10 mg Formulation Concept 1, fasting): 32.8 ng/mL | Ratio of Geometric Means, AUClast [3]: 93.31% | Ratio of Geometric Means, AUC∞ [3]: 94.14% | Ratio of Geometric Means, Cmax [3]: 108.64% | CL/F [4]: 34.5 L/h | Λz [4]: 0.030 h⁻¹ | CL/F [5]: 36.2 L/h | Cmax [5]: 34.1 ng/mL | Λz [5]: 0.029 h⁻¹ | AUClast, C Dose Normalized [6]: 286 (79.7) h * ng/mL | AUC∞, C Dose Normalized [6]: 309 (86.4) h * ng/mL | Cmax, C Dose Normalized [6]: 33.9 (8.97) ng/mL | CL/F [7]: 35.8 L/h | Λz [7]: 0.035 h⁻¹ | CL/F [8]: 25.0 L/h | Λz [8]: 0.031 h⁻¹ | AUC(0-t) (human, plasma, oral, 5 mg, Dose proportionality, completers, Treatment C (Test): 1 × 5 mg Formulation Concept 1, fasting, 5 mg dose normalized to 10 mg, read-out: Geometric Mean AUClast): 280 ng·h/mL | AUC(0-inf) (human, plasma, oral, 5 mg, Dose proportionality, completers, Treatment C (Test): 1 × 5 mg Formulation Concept 1, fasting, 5 mg dose normalized to 10 mg, read-out: Geometric Mean AUC∞): 299 ng·h/mL | Vd/F [9]: 1150 L | half-life [9]: 24.7 h | AUC(0-t) (human, plasma, oral, 5 mg, Treatment C: 1 × 5 mg Formulation Concept 1 (unmilled API tablet), fasting, mean, read-out: AUClast): 143 ng·h/mL | AUC(0-inf) (human, plasma, oral, 5 mg, Treatment C: 1 × 5 mg Formulation Concept 1 (unmilled API tablet), fasting, mean, read-out: AUC∞): 155 ng·h/mL | Cmax (human, plasma, oral, 5 mg, Treatment C: 1 × 5 mg Formulation Concept 1 (unmilled API tablet), fasting, mean, read-out: Cmax): 17 ng/mL | Tmax (human, plasma, oral, 5 mg, Treatment C: 1 × 5 mg Formulation Concept 1 (unmilled API tablet), fasting): 1.5 h | AUC(0-t) (human, plasma, oral, 10 mg, Dose proportionality, completers, Treatment B (Reference): 1 × 10 mg Formulation Concept 1, fasting, read-out: Geometric Mean AUClast): 271 ng·h/mL | AUC(0-inf) (human, plasma, oral, 10 mg, Dose proportionality, completers, Treatment B (Reference): 1 × 10 mg Formulation Concept 1, fasting, read-out: Geometric Mean AUC∞): 287 ng·h/mL | AUC(0-t) (human, plasma, oral, 10 mg, Food effect, completers, Treatment B (Reference): 1 × 10 mg Formulation Concept 1, fasting, read-out: Geometric Mean AUClast): 270 ng·h/mL | AUC(0-inf) (human, plasma, oral, 10 mg, Food effect, completers, Treatment B (Reference): 1 × 10 mg Formulation Concept 1, fasting, read-out: Geometric Mean AUC∞): 287 ng·h/mL | AUC(0-t) (human, plasma, oral, 10 mg, Food effect, completers, Treatment D (Test): 1 × 10 mg Formulation Concept 1, after high-fat breakfast, read-out: Geometric Mean AUClast): 388 ng·h/mL | AUC(0-inf) (human, plasma, oral, 10 mg, Food effect, completers, Treatment D (Test): 1 × 10 mg Formulation Concept 1, after high-fat breakfast, read-out: Geometric Mean AUC∞): 413 ng·h/mL | Cmax (human, plasma, oral, 10 mg, Food effect, completers, Treatment D (Test): 1 × 10 mg Formulation Concept 1, after high-fat breakfast, read-out: Geometric Mean Cmax): 36.6 ng/mL | AUC(0-t) (human, plasma, oral, 10 mg, Relative BA, completers, Treatment B (Test): 1 × 10 mg Formulation Concept 1, fasting, read-out: Geometric Mean AUClast): 271 ng·h/mL | AUC(0-inf) (human, plasma, oral, 10 mg, Relative BA, completers, Treatment B (Test): 1 × 10 mg Formulation Concept 1, fasting, read-out: Geometric Mean AUC∞): 287 ng·h/mL | Vd/F [10]: 1340 L | half-life [10]: 26.6 h | AUC(0-t) (human, plasma, oral, 10 mg, Treatment B: 1 × 10 mg Formulation Concept 1 (unmilled API tablet), fasting, mean, read-out: AUClast): 283 ng·h/mL | AUC(0-inf) (human, plasma, oral, 10 mg, Treatment B: 1 × 10 mg Formulation Concept 1 (unmilled API tablet), fasting, mean, read-out: AUC∞): 301 ng·h/mL | Tmax (human, plasma, oral, 10 mg, Treatment B: 1 × 10 mg Formulation Concept 1 (unmilled API tablet), fasting): 1.5 h | Vd/F [11]: 835 L | half-life [11]: 24.5 h | AUC(0-t) (human, plasma, oral, 10 mg, Treatment D: 1 × 10 mg Formulation Concept 1 (unmilled API tablet), after high-fat breakfast, mean, read-out: AUClast): 398 ng·h/mL | AUC(0-inf) (human, plasma, oral, 10 mg, Treatment D: 1 × 10 mg Formulation Concept 1 (unmilled API tablet), after high-fat breakfast, mean, read-out: AUC∞): 425 ng·h/mL | Cmax (human, plasma, oral, 10 mg, Treatment D: 1 × 10 mg Formulation Concept 1 (unmilled API tablet), after high-fat breakfast, mean, read-out: Cmax): 37.7 ng/mL | Tmax (human, plasma, oral, 10 mg, Treatment D: 1 × 10 mg Formulation Concept 1 (unmilled API tablet), after high-fat breakfast): 2.75 h | AUC(0-t) (human, plasma, po, 10 mg, Relative BA, completers, Treatment A (Reference): 2 × 5 mg oral capsule, fasting, read-out: Geometric Mean AUClast): 291 ng·h/mL | AUC(0-inf) (human, plasma, po, 10 mg, Relative BA, completers, Treatment A (Reference): 2 × 5 mg oral capsule, fasting, read-out: Geometric Mean AUC∞): 305 ng·h/mL | Cmax (human, plasma, po, 10 mg, Relative BA, completers, Treatment A (Reference): 2 × 5 mg oral capsule, fasting, read-out: Geometric Mean Cmax): 30.2 ng/mL | Vd/F [12]: 1250 L | half-life [12]: 26.3 h | AUC(0-t) (human, plasma, po, 10 mg, Treatment A: 2 × 5 mg oral capsule, fasting, mean, read-out: AUClast): 304 ng·h/mL | AUC(0-inf) (human, plasma, po, 10 mg, Treatment A: 2 × 5 mg oral capsule, fasting, mean, read-out: AUC∞): 315 ng·h/mL | Cmax (human, plasma, po, 10 mg, Treatment A: 2 × 5 mg oral capsule, fasting, mean, read-out: Cmax): 31.2 ng/mL | Tmax (human, plasma, po, 10 mg, Treatment A: 2 × 5 mg oral capsule, fasting): 1.5 h
